Test results: ChEMBL document CHEMBL3774377 (Bioorg Med Chem, 2016)

Experiments:
[1] = target: T1, Sodium- and chloride-dependent GABA transporter 1 (Mus musculus, UniProt P31648); assay: Displacement of NO 711 from mouse GAT1 expressed in HEK293 cell membranes after 40 mins by LC-ESI-MS-MS-based MS binding assay
[2] = target: Sodium- and chloride-dependent GABA transporter 1 (Mus musculus) (UniProt P31648); assay: Displacement of NO 711 from mouse GAT1 expressed in HEK293 cell membranes assessed as remaining marker bound to protein at 1 mM after 40 mins by LC-ESI-MS-MS-based MS binding assay
[3] = target: T2, GABA transporter 4 (Mus musculus) (UniProt P31650); assay: Inhibition of mouse GAT4 expressed in HEK293 cells assessed as remaining [3H]GABA uptake at 1 mM preincubated for 25 mins followed by [3H]GABA/unlabeled GABA addition measured after 4 mins by liquid scintillation counting analysis; type: cell-based
T2 sequence (whole entry): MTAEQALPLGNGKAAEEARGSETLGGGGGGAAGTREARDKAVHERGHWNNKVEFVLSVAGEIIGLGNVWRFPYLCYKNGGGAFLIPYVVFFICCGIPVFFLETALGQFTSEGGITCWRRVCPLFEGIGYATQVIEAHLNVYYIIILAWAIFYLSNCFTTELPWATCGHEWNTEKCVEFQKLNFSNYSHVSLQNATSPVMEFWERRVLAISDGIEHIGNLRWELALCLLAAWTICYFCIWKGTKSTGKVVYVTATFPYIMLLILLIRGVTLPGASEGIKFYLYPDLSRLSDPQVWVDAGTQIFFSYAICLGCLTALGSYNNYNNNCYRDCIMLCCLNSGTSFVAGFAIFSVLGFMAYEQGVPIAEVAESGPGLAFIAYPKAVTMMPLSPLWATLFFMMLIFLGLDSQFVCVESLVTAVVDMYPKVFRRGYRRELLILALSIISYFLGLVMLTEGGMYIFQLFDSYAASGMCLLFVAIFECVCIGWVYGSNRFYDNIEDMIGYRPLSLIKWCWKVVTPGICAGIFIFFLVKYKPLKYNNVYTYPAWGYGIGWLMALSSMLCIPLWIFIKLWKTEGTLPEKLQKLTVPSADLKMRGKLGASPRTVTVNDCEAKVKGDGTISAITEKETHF

[4] = target: T1, Sodium- and chloride-dependent GABA transporter 1; assay: Inhibition of mouse GAT1 expressed in HEK293 cells assessed as [3H]GABA uptake preincubated for 25 mins followed by [3H]GABA/unlabeled GABA addition measured after 4 mins by liquid scintillation counting analysis; type: cell-based
[5] = test system: Sodium- and chloride-dependent GABA transporter 2 (Mus musculus); assay: Inhibition of mouse GAT3 expressed in HEK293 cells assessed as remaining [3H]GABA uptake at 100 uM preincubated for 25 mins followed by [3H]GABA/unlabeled GABA addition measured after 4 mins by liquid scintillation counting analysis
[6] = target: T2, GABA transporter 4 (Mus musculus); assay: Inhibition of mouse GAT4 expressed in HEK293 cells assessed as remaining [3H]GABA uptake at 100 uM preincubated for 25 mins followed by [3H]GABA/unlabeled GABA addition measured after 4 mins by liquid scintillation counting analysis; type: cell-based
[7] = test system: Sodium- and chloride-dependent betaine transporter (Mus musculus); assay: Inhibition of mouse GAT2 expressed in HEK293 cells assessed as remaining [3H]GABA uptake at 100 uM preincubated for 25 mins followed by [3H]GABA/unlabeled GABA addition measured after 10 mins by liquid scintillation counting analysis
[8] = target: Sodium- and chloride-dependent GABA transporter 1 (Mus musculus) (UniProt P31648); assay: Displacement of NO 711 from mouse GAT1 expressed in HEK293 cell membranes assessed as remaining marker bound to protein at 100 uM after 40 mins by LC-ESI-MS-MS-based MS binding assay
GABA transporter 4 = target: T3, GABA transporter 4 (Mus musculus, UniProt P31650); assay: Inhibition of mouse GAT4 expressed in HEK293 cells assessed as [3H]GABA uptake preincubated for 25 mins followed by [3H]GABA/unlabeled GABA addition measured after 4 mins by liquid scintillation counting analysis; type: cell-based
T3 sequence (P31650 whole entry): T2 sequence (whole entry)

[9] = test system: Sodium- and chloride-dependent GABA transporter 2 (Mus musculus); assay: Inhibition of mouse GAT3 expressed in HEK293 cells assessed as remaining [3H]GABA uptake at 1 mM preincubated for 25 mins followed by [3H]GABA/unlabeled GABA addition measured after 4 mins by liquid scintillation counting analysis
[10] = target: Sodium- and chloride-dependent GABA transporter 1 (Mus musculus) (UniProt P31648); assay: Inhibition of mouse GAT1 expressed in HEK293 cells assessed as remaining [3H]GABA uptake at 1 mM preincubated for 25 mins followed by [3H]GABA/unlabeled GABA addition measured after 4 mins by liquid scintillation counting analysis; type: cell-based
[11] = target: Sodium- and chloride-dependent GABA transporter 1 (Mus musculus) (UniProt P31648); assay: Inhibition of mouse GAT1 expressed in HEK293 cells assessed as remaining [3H]GABA uptake at 100 uM preincubated for 25 mins followed by [3H]GABA/unlabeled GABA addition measured after 4 mins by liquid scintillation counting analysis; type: cell-based

Work on `O=C(O)C1CCCN(CCC=C(c2ccccc2)c2ccccc2)C1` (configuration not stated) yielded a Ki [1] of 0.186 µM.
`C#CCCC[C@H]1CCNC[C@@H]1C(=O)O` (racemic) showed an Activity [2] of 87.2%, an Activity [3] of 84.9% and an IC50 [4] of 1150 µM.
`O=C(O)[C@H]1CNCC[C@@H]1CCC/C=C/c1ccccc1Cc1ccccc1` (racemic) was tested, and the Ki [1] was 77.1 µM and the IC50 [4] was 107 µM.
`O=C(O)[C@H]1CNCC[C@@H]1CC/C=C/c1ccccc1-c1ccccc1` (racemic) showed an Activity [5] of 53.5%, a Ki [1] of 33.2 µM and an Activity [6] of 84.7%. It also gave an IC50 [4] of 60.5 µM and an Activity [7] of 88.7%.
Molecule `CN1CC[C@H](CCC/C=C/c2ccccc2Cc2ccccc2)[C@@H](C(=O)O)C1` (racemic) has a Ki [1] of 39.9 µM, an Activity [6] of 45.7% and an IC50 [4] of 24.7 µM.
For `CN1CC[C@H](CCCC#Cc2ccccc2-c2ccccc2)[C@@H](C(=O)O)C1` (racemic), the Activity [5] was 56.4%, the Activity [8] was 64.4% and the Activity [6] was 69.4%. It also gave an IC50 [4] of 37.4 µM and an Activity [7] of 51.9%.
`CN1CC[C@H](CC/C=C/c2ccccc2Cc2ccccc2)[C@@H](C(=O)O)C1` (racemic) was tested, and the Ki [1] was 39.8 µM and the IC50 [4] was 36.7 µM.
For `O=C(O)[C@H]1CNCC[C@H]1CCCC/C=C/c1ccccc1Cc1ccccc1` (racemic), the Ki [1] was 35.4 µM.
`CN1CC[C@H](CCCC#Cc2ccccc2Cc2ccccc2)[C@@H](C(=O)O)C1` (racemic) showed a Ki [1] of 28.6 µM, an Activity [6] of 50% and an IC50 [4] of 25.9 µM.
`O=C(O)[C@H]1CNCC[C@H]1CCCC#Cc1ccccc1Cc1ccccc1` (racemic) gave an IC50 (GABA transporter 4) of 62.5 µM, a Ki [1] of 31 µM and an IC50 [4] of 40.8 µM. It also gave an Activity [7] of 51.1%.
`O=C(O)[C@H]1CNCC[C@@H]1CCCC/C=C/c1ccccc1-c1ccccc1` (racemic) was tested, and the IC50 (GABA transporter 4) was 83.6 µM, the Ki [1] was 71.8 µM and the IC50 [4] was 75.5 µM. The Activity [7] was 63.7%.
`CN1CC[C@H](CCC/C=C/c2ccccc2-c2ccccc2)[C@@H](C(=O)O)C1` (racemic) was tested, and the Activity [5] was 53.8%, the Ki [1] was 72.4 µM and the Activity [6] was 57.9%. For the same molecule, the IC50 [4] was 34.8 µM and the Activity [7] was 90.8%.
Molecule `C=CCCCC[C@H]1CCNC[C@@H]1C(=O)O` (racemic) has an Activity [3] of 89.9%, a Ki [1] of 818 µM and an IC50 [4] of 740 µM.
Molecule `O=C(O)[C@H]1CNCC[C@H]1CCC/C=C/c1ccccc1Cc1ccccc1` (racemic) has a Ki [1] of 68.1 µM and an IC50 [4] of 64.1 µM.
Molecule `O=C(O)[C@H]1CNCC[C@H]1CCC/C=C/c1ccccc1-c1ccccc1` (racemic) has an Activity [5] of 54.5%, an Activity [8] of 45.9% and an Activity [6] of 52.5%. For the same molecule, the IC50 [4] was 66.8 µM and the Activity [7] was 64.8%.
Work on `CN1CC[C@H](CC/C=C/c2ccccc2-c2ccccc2)[C@@H](C(=O)O)C1` (racemic) yielded an Activity [5] of 67.9%, a Ki [1] of 14.3 µM and an Activity [6] of 75.5%. It also gave an IC50 [4] of 26.5 µM and an Activity [7] of 108%.
`O=C(O)[C@H]1CNCC[C@H]1CCCC/C=C/c1ccccc1-c1ccccc1` (racemic) was tested, and the IC50 (GABA transporter 4) was 36.7 µM, the Ki [1] was 27.4 µM and the IC50 [4] was 24.5 µM.
For `C#CCC[C@H]1CCNC[C@@H]1C(=O)O` (racemic), the Activity [2] was 88.9% and the Activity [3] was 90.4%.
With `C=CCC[C@H]1CCNC[C@@H]1C(=O)O` (racemic) the Activity [2] was 79.9%, the Activity [3] was 86.1% and the Activity [7] was 81.2%. The Activity [9] was 73.1% and the Activity [10] was 63.6%.
In the case of `CCCC[C@H]1CCNC[C@@H]1C(=O)O` (racemic), the Activity [2] is reported as 91.7%, the Activity [3] is reported as 87.5% and the Activity [10] is reported as 69.9%.
For `CN1CC[C@H](CCC#Cc2ccccc2-c2ccccc2)[C@@H](C(=O)O)C1` (racemic), the Activity [5] was 81.9%, the Activity [11] was 79.8% and the Activity [8] was 86.5%. The Activity [6] was 81.1% and the Activity [7] was 68.4%.
`CN1CC[C@H](CCC#Cc2ccccc2Cc2ccccc2)[C@@H](C(=O)O)C1` (racemic) was tested, and the Activity [5] was 71%, the Activity [11] was 60.9% and the Activity [8] was 73.9%. The Activity [6] was 84.4% and the Activity [7] was 57.5%.
Work on `O=C(O)[C@H]1CNCC[C@@H]1CC/C=C/c1ccccc1Cc1ccccc1` (racemic) yielded an Activity [5] of 78.1%, an Activity [11] of 86.3% and an Activity [8] of 79%. The Activity [6] was 92.4% and the Activity [7] was 85.1%.
`O=C(O)[C@H]1CNCC[C@@H]1CCC/C=C/c1ccccc1-c1ccccc1` (racemic) showed an Activity [5] of 75.7%, an Activity [11] of 73.9% and an Activity [8] of 86.6%. For the same molecule, the Activity [6] was 76.1% and the Activity [7] was 98.3%.
Work on `O=C(O)[C@H]1CNCC[C@@H]1CCCC/C=C/c1ccccc1Cc1ccccc1` (racemic) yielded an Activity [11] of 60.5% and an Activity [8] of 78.5%.
In the case of `O=C(O)[C@H]1CNCC[C@H]1CC/C=C/c1ccccc1-c1ccccc1` (racemic), the Activity [5] is reported as 55.3%, the Activity [11] is reported as 68.6% and the Activity [8] is reported as 76.2%. For the same molecule, the Activity [6] was 63.5% and the Activity [7] was 81.2%.
`O=C(O)[C@H]1CNCC[C@H]1CC/C=C/c1ccccc1Cc1ccccc1` (racemic) gave an Activity [11] of 43.9%, an Activity [8] of 79.6% and an Activity [6] of 49.7%. For the same molecule, the Activity [7] was 62.5%.
With `O=C(O)[C@H]1CNCC[C@H]1CCC#Cc1ccccc1-c1ccccc1` (racemic) the Activity [5] was 58.2%, the Activity [11] was 60.4% and the Activity [8] was 83.9%. It also gave an Activity [6] of 86.9% and an Activity [7] of 52%.
`O=C(O)[C@H]1CNCC[C@H]1CCC#Cc1ccccc1Cc1ccccc1` (racemic) was tested, and the Activity [5] was 53.9%, the Activity [11] was 70.1% and the Activity [8] was 82.7%. For the same molecule, the Activity [6] was 63.9% and the Activity [7] was 68.4%.
`O=C(O)[C@H]1CNCC[C@H]1CCCC#Cc1ccccc1-c1ccccc1` (racemic) gave an Activity [5] of 72.9%, an Activity [11] of 80% and an Activity [8] of 83.1%. It also gave an Activity [6] of 77.8% and an Activity [7] of 67.7%.
